Earlier results in patent US11399558B2, “Rebaudioside-D containing sweetener compositions” (Heartland Consumer Products, LLC, priority 2015, dated 2022).
Read-outs that look alike come from different tables or passages of the source.

Assays:
[1] = Chang et al. 1983
[2] = on a weight basis
[3] = heat, acid, and alkaline conditions
[4] = absorbed into the bloodstream in the small intestine
[5] = for Solubility in ethanol: ethanol / alcohol

## C=C1C[C@@]23CC[C@H]4[C@@](C)(CCC[C@@]4(C)C(=O)O[C@@H]4O[C@H](CO)[C@@H](O)[C@H](O)[C@H]4O)[C@@H]2CC[C@]1(O[C@@H]1O[C@H](CO)[C@@H](O)[C@H](O[C@@H]2O[C@H](CO)[C@@H](O)[C@H](O)[C@H]2O)[C@H]1O[C@@H]1O[C@H](CO)[C@@H](O)[C@H](O)[C@H]1O)C3 [Rebaudioside A]
[1]
  Stability in carbonated beverages: heat and pH stability

## C=C1C[C@@]23CC[C@H]4[C@@](C)(CCC[C@@]4(C)C(=O)O[C@@H]4O[C@H](CO)[C@@H](O)[C@H](O)[C@H]4O)[C@@H]2CC[C@]1(O[C@@H]1O[C@H](CO)[C@@H](O)[C@H](O)[C@H]1O[C@@H]1O[C@H](CO)[C@@H](O)[C@H](O)[C@H]1O)C3 [Stevioside]
[1]
  Stability in carbonated beverages: heat and pH stability

## OC[C@@H](O)[C@@H](O)CO [Eryrithritol, 1,2,3,4-butanetetrol]
[2]
  Sweetness relative to sucrose (cane sugar): about 70%
[3]
  Stability: stable
[4]
  Excretion: for the most part is excreted unchanged in the urine
[5]; DMSO
  Solubility in DMSO: Insoluble
[5]
  Solubility in ethanol: Slight
  Solubility in water: Soluble
[5]; listed as Erythritol
  Solubility in ethanol: slightly soluble
  Solubility in water: water soluble
